Reference: PMC10488193, “Evaluation of the Chemical Stability, Membrane Permeability and Antiproliferative Activity of Cyclic Diarylheptanoids from European Hornbeam (Carpinus betulus L.)” (International Journal of Molecular Sciences, 2023)
“Also recorded” adds a separate entry of the source. Like-named read-outs stand apart in the source and are kept apart here. Marks after values point to notes of the source that are not given here.

How the values were obtained:
[1] = Aqueous stability at biorelevant pH values, 37 °C (UHPLC-DAD); assay type: physicochemical; settings: for half-life at 100 µM / degradation rate constant k: first-order; for half-life at 100 µM: read-out: half-life t1/2 (converted)
Experimental: (§1) For the analysis of the samples from the chemical stability as well as the PAMPA studies, sample concentrations were determined using our previously developed ultrahigh-performance liquid chromatography–diode array detection (UHPLC-DAD) method validated for linearity, precision and accuracy. Briefly, an ACQUITY UPLC H-Class PLUS System hyphenated with a quaternary solvent delivery pump (QSM), an auto-sampler manager (FTN), a column compartment (CM) and a photodiode array (PDA) detector (Waters Corporation) was employed. Stationary phase: Acquity BEH C18 column (100 × 2.1 mm i.d., 1.7 µm; Waters Corporation), column temperature: 30 °C. The mobile phase consisted of 0.3% acetic acid in water (eluent A) and acetonitrile (eluent B). The following gradient elution was applied at a flow rate of 0.3 mL/min: 0 min 12.0% B, 19.0 min 13.5% B, 25.5 min 75.0% B, 26.0 min 100.0% B, 28.0 min 100.0% B, 28.5 min 12.0% B.
The buffers modelling the gastric fluid (pH 1.2), the intestinal fluid (pH 6.8) and the blood and the tissues (pH 7.4) were prepared as follows. Buffer pH = 1.2: 1.0 g NaCl and 3.5 mL HCl dissolved in distilled water, final volume: 500.0 mL. Buffer pH = 6.8: 20.2 g Na2HPO4∙7H2O and 3.4 g NaH2PO4∙H2O dissolved in distilled water, final volume: 1000.0 mL, pH adjustment with 0.5 M NaOH or 0.5 M HCl. Buffer pH = 7.4: one PBS tablet dissolved in 200.0 mL distilled water. The stock solutions of compounds 1–4 were prepared with dimethyl sulfoxide (DMSO) at a concentration of 10.0 mM. The stock solutions were diluted 100-fold with each buffer separately to obtain the working solutions (297.0 μL buffer + 3.0 μL stock solution). All working solutions were filtered through Phenex-RC 15 mm, 0.2 μm syringe filters (Gen-Lab Ltd., Budapest, Hungary). The samples were incubated for 81 h at 37 °C; aliquots were taken for analysis every 9 h in accordance with the time required to quantify the analytes of interest in one set of samples. The total incubation time of 81 h was applied to obtain data for ten measurement points. The previously described UHPLC-DAD method was used to examine the changes in compound concentrations (see Section 3.4).
For the determination of pH stability, the initial AUC values were compared with the data after 9 and 81 h using paired-sample t test; significant difference was reported at p < 0.05. The effects of the pH were analysed through one-way analysis of variance (ANOVA) followed by Tukey’s post hoc HSD test (p < 0.05). All experiments were performed in triplicates (n = 3).
(§2) We used the following equations to calculate the first-order reaction rate constant (k) and the half-life (t1/2) indicating the time required to reduce the concentration of diarylheptanoids by 50% [29]:ln (ct/c0) = −k × t(1) t1/2 = −ln 0.5 × k^−1(2) where ct is the concentration of the diarylheptanoids at time t, c0 is the initial concentration, k is the reaction rate constant, t is the treatment time.

[2] = Storage stability in solutions and hornbeam bark extracts (UHPLC-DAD); assay type: physicochemical
Experimental: as §1, §2
The chemical stability of the isolated compounds in solutions was examined at a concentration of 50 µg/mL in methanol and water (in the latter case using methanol as co-solvent, final composition: water-methanol 90:10, v/v). Furthermore, the methanol and ethyl acetate extracts of C. betulus bark (concentration 4 mg/mL) were also studied in order to assess the effects of the accompanying substances. The storage stability studies were performed at a neutral pH value. All solutions were filtered through Phenex-RC 15 mm, 0.2 μm syringe filters (Gen-Lab Ltd., Budapest, Hungary). The samples were prepared in triplicate and stored protected from light at 22 ± 2.0 °C, 5 ± 1.5 °C and −15 ± 2.0 °C for 23 weeks. Quantities of the analytes of interest were quantified at weeks 12 and 23 using the abovementioned UHPLC-DAD method (see Section 3.4).
The effects of the temperature and the medium (i.e., solvent and accompanying substances) were analysed through one-way analysis of variance (ANOVA) followed by Tukey’s post hoc HSD test (p < 0.05). To establish the kinetic parameters t1/2 and k, Equations (1) and (2) were applied, respectively.

## O=C1CCC(=O)C(O)Cc2ccc(O)c(c2)-c2cc(ccc2O)C1 (stereo not drawn) [Compound 4, 3,12,17-trihydroxytricyclo [12.3.1.1^2,6]nonadeca-1(18),2(19),3,5,14,16-hexaene-8,11-dione]
[1]; 37 °C, up to 81 h
  aqueous stability at pH 1.2, 6.8, 7.4 (in words): stable only at pH 7.4
[1]; 9 h, pH 1.2, 37 °C
  relative concentration compared to the initial value: 68.5 ± 4.5%
[1]; 9 h, pH 6.8, 37 °C
  relative concentration compared to the initial value: 105.8 ± 2.6 ^a %
[1]; 9 h, pH 7.4, 37 °C
  relative concentration compared to the initial value: 102.0 ± 3.7 ^a %
[1]; 81 h, pH 1.2, 37 °C
  relative concentration compared to the initial value: 31.0 ± 7.0%
[1]; 81 h, pH 6.8, 37 °C
  relative concentration compared to the initial value: 88.9 ± 2.0%
[1]; 81 h, pH 7.4, 37 °C
  relative concentration compared to the initial value: 103.1 ± 2.2 ^a %
[1]; NaCl/HCl buffer, pH 1.2, 37 °C
  half-life at 100 µM: 2.27 days
[1]; pH 1.2, 37 °C
  degradation rate constant k: 0.0127 h⁻¹
[1]; pH 6.8, 37 °C
  degradation rate constant k: 0.00142 h⁻¹
[1]; sodium phosphate buffer, pH 6.8, 37 °C
  half-life at 100 µM: 20.3 days
[2]; 12 weeks, 5 °C, EE (ethyl acetate extract of bark)
  concentration as compared to the initial value: 102.0 ± 1.7%
[2]; 12 weeks, 5 °C, EM (methanol extract of bark)
  concentration as compared to the initial value: 105.5 ± 2.5%
[2]; 12 weeks, 5 °C, SA (aqueous solution)
  concentration as compared to the initial value: 100.5 ± 0.7 ^ab %
[2]; 12 weeks, 5 °C, SM (methanol solution)
  concentration as compared to the initial value: 100.1 ± 0.6 ^ab %
[2]; 12 weeks, 22 °C, EE (ethyl acetate extract of bark)
  concentration as compared to the initial value: 106.3 ± 2.6 %
[2]; 12 weeks, 22 °C, EM (methanol extract of bark)
  concentration as compared to the initial value: 120.9 ± 2.6 %
[2]; 12 weeks, 22 °C, SA (aqueous solution)
  concentration as compared to the initial value: 100.8 ± 1.1 ^a %
[2]; 12 weeks, 22 °C, SM (methanol solution)
  concentration as compared to the initial value: 100.1 ± 0.5 ^ab %
[2]; 12 weeks, −15 °C, EE (ethyl acetate extract of bark)
  concentration as compared to the initial value: 103.5 ± 0.8%
[2]; 12 weeks, −15 °C, EM (methanol extract of bark)
  concentration as compared to the initial value: 102.8 ± 3.3 %
[2]; 12 weeks, −15 °C, SA (aqueous solution)
  concentration as compared to the initial value: 98.6 ± 1.3 ^b %
[2]; 12 weeks, −15 °C, SM (methanol solution)
  concentration as compared to the initial value: 99.1 ± 0.7 ^ab %
[2]; 23 weeks, 5 °C, EE (ethyl acetate extract of bark)
  concentration as compared to the initial value: 107.8 ± 2.6 %
[2]; 23 weeks, 5 °C, EM (methanol extract of bark)
  concentration as compared to the initial value: 107.0 ± 4.1%
[2]; 23 weeks, 5 °C, SA (aqueous solution)
  concentration as compared to the initial value: 100.0 ± 0.5 ^ab %
[2]; 23 weeks, 5 °C, SM (methanol solution)
  concentration as compared to the initial value: 100.3 ± 0.5 ^ab %
[2]; 23 weeks, 22 °C, EE (ethyl acetate extract of bark)
  concentration as compared to the initial value: 108.5 ± 2.7 %
[2]; 23 weeks, 22 °C, EM (methanol extract of bark)
  concentration as compared to the initial value: 135.7 ± 9.7 %
[2]; 23 weeks, 22 °C, SA (aqueous solution)
  concentration as compared to the initial value: 100.3 ± 0.6 ^ab %
[2]; 23 weeks, 22 °C, SM (methanol solution)
  concentration as compared to the initial value: 100.2 ± 0.5 ^ab %
[2]; 23 weeks, −15 °C, EE (ethyl acetate extract of bark)
  concentration as compared to the initial value: 108.0 ± 2.2 %
[2]; 23 weeks, −15 °C, EM (methanol extract of bark)
  concentration as compared to the initial value: 103.6 ± 3.5%
[2]; 23 weeks, −15 °C, SA (aqueous solution)
  concentration as compared to the initial value: 99.9 ± 1.2 ^ab %
[2]; 23 weeks, −15 °C, SM (methanol solution)
  concentration as compared to the initial value: 99.8 ± 1.2 ^ab %
[2]; SM and SA, −15, 5, 22 °C, weeks 12 and 23
  storage stability in methanol and aqueous solutions (in words): stable; also recorded: good stability
